What all share (assay): relative viability (nuclei count vs DMSO), 5 days (fraction); higher = more cells survive
Compound in test [1]: Nc1nc(Nc2ccc3c(c2)CC[C@@H](N2CCCC2)CC3)nn1-c1cc2c(nn1)-c1ccccc1CCC2 [Bemcentinib] + CC(=O)c1c(C)c2cnc(Nc3ccc(N4CCNCC4)cn3)nc2n(C2CCCC2)c1=O [Palbociclib] (partner 0.5 µM)
Summed up:
(§1)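 Relative viability divides the nuclei count in treated wells by that in vehicle wells. Lung cancer cell lines were seeded in 1536-well plates, dosed by pin tool the next day, and fixed and stained after 5 days in one step with final 0.05% Triton X-100, 1% formaldehyde and 1 ug/ml Hoechst. Dosing was a single drug or a fixed anchor-drug dose plus five library-drug doses (not always all listed) in √10 steps, and values are medians of duplicate plates imaged at 4×.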

Compound in test [2]: Nc1nc(Nc2ccc3c(c2)CC[C@@H](N2CCCC2)CC3)nn1-c1cc2c(nn1)-c1ccccc1CCC2 [Bemcentinib] + O=C(c1cc(Cc2n[nH]c(=O)c3ccccc23)ccc1F)N1CCN(C(=O)C2CC2)CC1 [Olaparib] (partner 8 µM)
Summed up: as §1

Compound in test [3]: CNC(=O)c1ccccc1Sc1ccc2c(/C=C/c3ccccn3)n[nH]c2c1 [Axitinib] + NC(=O)Nc1cc(-c2cccc(F)c2)sc1C(=O)N[C@H]1CCCNC1 [AZD7762] (partner 0.2 µM)
The procedure, abridged: as §1

Compound in test [4]: CC1=CC=C(C=C1)C(=O)CN2C3=C(CCCC3)SC2=N [Pifithrin_alpha] + O=C(c1cc(Cc2n[nH]c(=O)c3ccccc23)ccc1F)N1CCN(C(=O)C2CC2)CC1 [Olaparib] (partner 8 µM)
Summed up: as §1

Regarding NCI-H650, the relative viability in test [1] (first compound 0.04 µM) was found to be 0.337; in test [1] (first compound 0.1265 µM), 0.298; in test [1] (first compound 0.4 µM), 0.338; in test [1] (first compound 1.265 µM), 0.333; in test [1] (first compound 4 µM) it was 0.298; in test [2] (first compound 0.04 µM), 0.402. In addition, the relative viability in test [2] (first compound 0.1265 µM) amounted to 0.424; in test [2] (first compound 0.4 µM), 0.42; in test [2] (first compound 1.265 µM) it was 0.424; in test [2] (first compound 4 µM), 0.36; in test [3] (first compound 0.005 µM) it was 1.08; in test [3] (first compound 0.01581 µM) it was 0.978. In addition, the relative viability in test [3] (first compound 0.05 µM) was 1.08; in test [3] (first compound 0.1581 µM) it was 1.11; in test [3] (first compound 0.5 µM), 0.862; in test [4] (first compound 3.162 µM) it was 0.398; in test [4] (first compound 10 µM) it was 0.339; in test [4] (first compound 31.62 µM), 0.221. For the same cell line, the relative viability in test [4] (first compound 100 µM) is 0.355.

Values taken from the supplement of paper PMC10307832.
